The target of the assay is T1, luciferase (Photinus pyralis, UniProt P08659).
T1 construct: purchased Analytical Luminescent Laboratories (ALL), Sparks, Maryland #2005
Kind of assay: luminescence from the reaction between ATP and a luciferase/luciferin reactant system loaded on reagent discs. It is filed as biochemical. The text has this:
FIG. 11 is a plot of relative luminescent intensity for reactant mixtures prepared with (♦) and without (▪) trehalose in the reactant loading solution for use with the device of FIG. 1.
FIG. 12 is a plot of luminescent intensity as a function of the concentration of trehalose in the reactant solution for use with the device of FIG. 1.
As discussed above, the inherent chemical and mechanical stability of the polymeric material is ideally suited for use as a medium on which to load the chemiluminescent reagents for the practice of the present invention. A number of commercial enterprises market luciferin-luciferase reagent kits for use in chemiluminescent reaction assays. One that the inventors have found to be particularly well suited for the practice of the present invention is the “Firelight®” luciferin-luciferase reagent kit provided by Analytical Luminescent Laboratories (ALL) of Sparks, Maryland. […] This provides for a greater intensity of luminescence, and faster reaction kinetics.
In the preparation of the reagent discs 48, the reactant concentrate is loaded, preferably drop-wise, onto the Merocel® CF50, obtained in pre-sterilized sheets. The coated sheets are then dried at ambient temperatures under a vacuum, and the reagent discs are cut from the sheets in an appropriate size and shape. Alternatively, discs may be cut first and then loaded with appropriate reagent solution. When loaded in such fashion with the reagent mixture, reagent discs, approximately 6 mm in diameter and approximately 1.5 mm in height, carry approximately 0.5 mg of the dried reactant mixture.
It is recognized in the prior art that trehalose will stabilize delicate materials while they are freeze-dried. Freeze drying as a technique was devised as being the only way certain sensitive materials can be handled. Ordinary drying at ambient or elevated temperature and at atmospheric or reduced pressure causes irreversible degradation of very many such substances, so much so that it has been accepted that sensitive proteins must not be dried at ambient temperature. […]

T1 sequence (P08659 whole entry): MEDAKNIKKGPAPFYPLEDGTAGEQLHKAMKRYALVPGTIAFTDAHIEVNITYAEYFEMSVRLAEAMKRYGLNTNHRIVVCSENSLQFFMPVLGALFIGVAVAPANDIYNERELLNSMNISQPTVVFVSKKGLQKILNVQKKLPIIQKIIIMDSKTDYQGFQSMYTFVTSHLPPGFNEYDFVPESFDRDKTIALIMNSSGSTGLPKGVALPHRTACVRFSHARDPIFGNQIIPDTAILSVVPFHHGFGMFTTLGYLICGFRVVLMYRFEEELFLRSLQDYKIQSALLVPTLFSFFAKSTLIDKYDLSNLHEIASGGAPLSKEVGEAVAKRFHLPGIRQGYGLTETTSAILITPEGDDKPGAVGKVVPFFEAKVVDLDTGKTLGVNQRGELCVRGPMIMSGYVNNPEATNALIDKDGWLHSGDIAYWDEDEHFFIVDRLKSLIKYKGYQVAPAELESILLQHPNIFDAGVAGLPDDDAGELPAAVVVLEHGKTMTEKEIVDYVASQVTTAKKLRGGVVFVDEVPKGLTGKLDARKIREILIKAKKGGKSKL

On to `OC[C@H]1O[C@H](O[C@H]2O[C@H](CO)[C@@H](O)[C@H](O)[C@H]2O)[C@H](O)[C@@H](O)[C@@H]1O` [trehalose, a-D-glucopyranosyl-a-D-glucopyranoside], for which the “observed luminescent intensities versus the same loading of reagents without the trehalose” value (6 mm×1.5 mm reagent disc, total loading approximately 4 mg including trehalose, FIG. 12) was “more than twice”. Where the note is “reactant mixtures prepared with and without trehalose in the loading solution, FIG. 11”, the “stabilization effect on the chemiluminescent reactant mixture” value is recorded as “measurable stabilization effect”. Further, where the note is “trehalose added to the loading solution at levels approaching its saturation solubility”, the “biochemical activity of the luciferase component of the reagent mixture” value was “up to a doubling, or more”.

(Values after US20010046687A1, “Method for the enhancement of luminescence intensity from a reaction between adenosine triphosphate (ATP) and a luciferase/luciferin reactant system” (priority 2000, published 2001).)
